Reference: patent US20250066359A1, “SOMATOSTATIN RECEPTOR SUBTYPE 5 ANTAGONISTS, AND PHARMACEUTICAL COMPOSITION AND USE THEREOF” (SHANGHAI INSTITUTE OF MATERIA MEDICA, CHINESE ACADEMY OF …, priority 2021, published 2025)

Key:
hSSTR5 = molecular target: T1, hSSTR5 (Homo sapiens, UniProt P35346); test: SSTR5 antagonistic activity in vitro by calcium flow detection (hSSTR5-CHO-Gα16 cells); format: cell-based; conditions: for IC50: hSSTR5-CHO-Gα16 cells, 100 nM Somatostatin-14 agonist, Fluo-4 fluorescence 525 nm; for SSTR5 antagonistic activity (in words): summary of Table 1
T1 construct: expressed in transfected cells; host or cells: CHO cells co-expressing Gα16 (hSSTR5-CHO-Gα16)
T1 sequence (P35346 whole entry): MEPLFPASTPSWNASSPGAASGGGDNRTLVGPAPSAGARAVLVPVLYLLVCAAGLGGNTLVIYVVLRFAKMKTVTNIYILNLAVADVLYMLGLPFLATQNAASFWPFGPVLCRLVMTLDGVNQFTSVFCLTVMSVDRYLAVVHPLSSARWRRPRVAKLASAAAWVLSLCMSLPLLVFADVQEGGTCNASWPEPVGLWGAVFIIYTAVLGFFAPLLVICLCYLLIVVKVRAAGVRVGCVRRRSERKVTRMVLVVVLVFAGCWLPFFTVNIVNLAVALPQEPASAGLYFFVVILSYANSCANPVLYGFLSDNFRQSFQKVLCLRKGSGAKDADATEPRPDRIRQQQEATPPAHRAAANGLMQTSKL
Text: (§1) Testing SSTR5 antagonistic activity in vitro by Calcium flow detection method Experimental principle: After the receptor binds to the ligand and is activated, it can cause the activation of Gα16 protein, which further activates phospholipase C(PLC) to produce IP3 and DAG. IP3 can bind to the IP3 receptors on the endoplasmic reticulum and mitochondria in the cell, thereby causing the release of intracellular calcium. Therefore, measuring the changes in intracellular calcium can be used in the method to detect the activation state of hSSTR5. Fluo-4/AM is a calcium fluorescent probe indicator used to measure calcium ions. As a non-polar lipid-soluble compound, after it enters the cell, the AM group therein dissociates, and Fluo-4 is released under the action of cellular lipase; because Fluo-4 is a polar molecule and is not easy to pass through the lipid bilayer membrane, it can keep Fluo-4 in the cell fora longtime. Finally, the level of Ga protein activation can be reflected by measuring the intensity of the excited fluorescence. Somatostatin, an agonist of SSTR5, can activate SSTR5 receptors and greatly increase the calcium flow response. The SSTR5 antagonist to be tested can inhibit the agonist activity of the SSTR5 receptor and reduce the calcium increased flow response of the receptor stimulated by the agonist.
(§2) • (1) The hSSTR5-CHO-Gα16 and mSSTR5-CHO-Gα16 cell lines stably expressing hSSTR5 or mSSTR5 receptors were seeded at a density of 30,000/well in a 96-well plate and cultured in a 37° C. incubator overnight. • (2) The cells was aspirated off the culture medium, added with freshly prepared dye at 40 μL/well, and incubated in a 37° C. incubator for 45 minutes. • (3) After the dye was aspirated and discarded, the cells were washed with freshly prepared calcium buffer and the culture medium was replaced with 50 μL of calcium buffer. • (4) The SSTR5 agonist Somatostatin-14 was diluted and mixed evenly with calcium buffer. • (5) Detection was performed using a Flextation instrument. Starting from the 15th second, 25 μL of the pre-prepared agonist was automatically added by the instrument, and the fluorescence value at 525 nm was read.

mSSTR5 = molecular target: T2, mSSTR5 (Mus musculus, UniProt O08858); test: SSTR5 antagonistic activity in vitro by calcium flow detection (mSSTR5-CHO-Gα16 cells); format: cell-based; conditions: 100 nM Somatostatin-14 agonist, Fluo-4 fluorescence 525 nm
T2 construct: expressed in transfected cells; host or cells: CHO cells co-expressing Gα16 (mSSTR5-CHO-Gα16)
T2 sequence (O08858 1-362): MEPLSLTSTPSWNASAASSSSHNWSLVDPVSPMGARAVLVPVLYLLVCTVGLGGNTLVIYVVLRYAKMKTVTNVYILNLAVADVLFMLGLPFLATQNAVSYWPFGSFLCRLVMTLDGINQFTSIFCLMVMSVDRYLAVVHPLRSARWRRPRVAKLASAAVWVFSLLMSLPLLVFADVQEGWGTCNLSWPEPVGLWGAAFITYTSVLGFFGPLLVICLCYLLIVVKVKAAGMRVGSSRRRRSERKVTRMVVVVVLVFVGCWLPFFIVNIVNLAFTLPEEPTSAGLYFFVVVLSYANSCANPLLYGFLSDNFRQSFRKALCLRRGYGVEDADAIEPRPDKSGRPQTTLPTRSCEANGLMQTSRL
Text: as §1, §2

| Compound | IC50 (hSSTR5) [nM] | SSTR5 antagonistic activity (in words) (hSSTR5) | IC50 (mSSTR5) [nM] |
| --- | --- | --- | --- |
| CCOc1cc(CN2CC3(CC(=O)N(c4ccc(C(=O)O)cc4)C3)C2)c(C2CC2)cc1C [Example 8, 4-(2-(2-cyclopropyl-5-ethoxy-4-methylbenzyl)-7-oxo-2,6-diazaspiro[3.4]octane-6-yl)benzoic acid] | 50 to 200 | – | – |
| CCOc1cc(CN2CCC3C(CCN3c3ccc(C(=O)O)cc3)C2)cc(OCC)c1-c1ccc(F)cc1 (stereo not shown) [Example 2, 4-(5-((2,6-diethoxy-4′-fluoro-[1,1′-biphenyl]-4-yl)methyl)octahydro-1H-pyrrolo[3,2-c]pyridin-1-yl)benzoic acid] | 0.1 to 50 | potent SSTR5 antagonistic activity | 50 to 200 |
| CCOc1cc(CN2CC3(CC(=O)N(c4ccc(C(=O)O)cc4)C3)C2)cc(OCC)c1-c1ccc(F)cc1 [Example 7, 4-(2-((2,6-diethoxy-4′-fluoro-[1,1′-biphenyl]-4-yl)methyl)-7-oxo-2,6-diazaspiro[3.4]octane-6-yl)benzoic acid] | 0.1 to 50 | potent SSTR5 antagonistic activity | 0.1 to 50 |
| CCOc1ccc(C2CC2)c(CN2CC3(CC(=O)N(c4ccc(C(=O)O)cc4)C3)C2)c1 [Example 9, 4-(2-(2-cyclopropyl-5-ethoxybenzyl)-7-oxo-2,6-diazaspiro[3.4]octyl-6-yl)benzoic acid] | 50 to 200 | – | – |
| CCOc1cc(CN2CC3(CC(=O)N(c4ccc(C(=O)O)cc4)C3)C2)ccc1O [Example 26, 4-(2-(3-ethoxy-4-hydroxybenzyl)-7-oxo-2,6-diazaspiro[3.4]octyl-6-yl)benzoic acid] | > 200 | – | – |
| CCOc1cc(CN2CCC3(CCC(=O)N(c4ccc(C(=O)O)cc4)C3)CC2)cc(OCC)c1-c1ccc(F)cc1 [Example 1, 4-(9-((2,6-diethoxy-4′-fluoro-[1,1′-biphenyl]-4-yl)methyl)-3-oxo-2,9-diazaspiro[5.5]undec-2-yl)benzoic acid] | 50 to 200 | – | – |
| CCOc1cc(CN2CCN(C3CCN(S(=O)(=O)c4ccc(OC(F)(F)F)cc4)CC3)CC2)cc(OCC)c1-c1ccc(F)cc1 [Example 12, 1-((2,6-diethoxy-4′-fluoro-[1,1′-biphenyl]-4-yl)methyl)-4-(1-((4-(trifluoromethoxy)phenyl)sulfonyl)piperidin-4-yl)piperazine] | 0.1 to 50 | potent SSTR5 antagonistic activity | 0.1 to 50 |
| CCOc1cc(CN2CCC(C3CN(c4ccc(C(=O)O)cc4)C3)CC2)cc(OCC)c1-c1ccc(F)cc1 [Example 4, 4-(3-(1-((2,6-diethoxy-4′-fluoro-[1,1′-biphenyl]-4-yl)methyl)piperidin-4-yl)azetidin-1-yl)benzoic acid] | 50 to 200 | – | – |
| CCOc1cc(CN2CC3(CC(Nc4ccc(C(=O)O)cc4)C3)C2)cc(OCC)c1-c1ccc(F)cc1 [Example 6, 4-((2-((2,6-diethoxy-4′-fluoro-[1,1′-biphenyl]-4-yl)methyl)-2-azaspiro[3.3]heptane-6-yl)amino)benzoic acid] | > 200 | – | – |
| CCOc1cc(CN2CCC3(CC2)CCN(c2ccc(C(=O)O)cc2)C(=O)C3)cc(OCC)c1-c1ccc(F)cc1 [Example 3, 4-(9-((2,6-diethoxy-4′-fluoro-[1,1′-biphenyl]-4-yl)methyl)-2-oxo-3,9-diazaspiro[5.5]undec-3-yl)benzoic acid] | 50 to 200 | – | – |
| CCOc1cc(CN2CCC3(CC2)CN(c2ccc(C(=O)O)cc2)CCO3)cc(OCC)c1-c1ccc(F)cc1 [Example 5] | 50 to 200 | – | – |

The next lines start with the values.

| IC50 (hSSTR5) [nM] | SSTR5 antagonistic activity (in words) (hSSTR5) | IC50 (mSSTR5) [nM] | Compound |
| --- | --- | --- | --- |
| > 200 | – | – | CCOc1cc(CN2CCN(S(=O)(=O)c3ccc(OC(F)(F)F)cc3)CC2)cc(OCC)c1-c1ccc(F)cc1 [Example 16, 1-((2,6-diethoxy-4′-fluoro-[1,1′-biphenyl]-4-yl)methyl)-4-((4-(trifluoromethoxy)phenyl)sulfonyl)piperazine] |
| 0.1 to 50 | potent SSTR5 antagonistic activity | – | CCOc1cc(CN2CCC3(CC2)CN(c2ccc(C(=O)O)cc2)C3=O)cc(OCC)c1-c1ccc(F)cc1 [Example 18, 4-(7-((2,6-diethoxy-4′-fluoro-[1,1′-biphenyl]-4-yl)methyl)-1-oxo-2,7-diazaspiro[3.5]nonan-2-yl)benzoic acid] |
| 0.1 to 50 | potent SSTR5 antagonistic activity | – | CCOc1cc(CN2CCC3(CC2)CN(c2ccc(C(=O)O)cc2)C3)c(C2CC2)cc1C [Example 19, 4-(7-(2-cyclopropyl-5-ethoxy-4-methylbenzyl)-2,7-diazaspiro[3,5]nonan-2-yl)benzoic acid] |
| 50 to 200 | – | – | CCOc1cc(CN2CCC3(CC2)CN(c2ccc(C(=O)O)cc2)C3)ccc1N(CC)CC [Example 25, 4-(7-(4-(diethylamino)-3-ethoxybenzyl)-2,7-diazaspiro[3.5]nonan-2-yl)benzoic acid] |
| > 200 | – | – | O=C(O)c1ccc(N2CC3(CC2=O)CN(Cc2cc(C(F)(F)F)ccc2C2CC2)C3)cc1 [Example 23, 4-(2-(2-cyclopropyl-5-(trifluoromethyl)benzyl)-7-oxo-2,6-diazaspiro[3.4]octyl-6-yl)benzoic acid] |
| 0.1 to 50 | potent SSTR5 antagonistic activity | 0.1 to 50 | CCOc1cc(CN2CCC3(CC2)CN(c2ccc(C(=O)O)c(OC)c2)C3)cc(OCC)c1-c1ccc(F)cc1 [Example 28, 4-(7-((2,6-diethoxy-4′-fluoro-[1,1′-biphenyl]-4-yl)methyl)-2,7-diazaspiro[3.5]nonan-2-yl)-2-methoxybenzoic acid] |
| 50 to 200 | – | – | CCOc1cc(CN2CCC3(CC2)CN(c2ccc(C(=O)O)cc2)C3)c(-c2ccc(F)c(F)c2F)cc1C [Example 20, 4-(7-((4-ethoxy-2′,3′,4′-trifluoro-5-methyl-[1,1′-biphenyl]-2-yl)methyl)-2,7-diazaspiro[3,5]nonan-2-yl)benzoic acid] |
| > 200 | – | – | CCOc1cc(CN2CCN(C3CCN(S(=O)(=O)c4ccc(C(=O)O)cc4)CC3)CC2)cc(OCC)c1-c1ccc(F)cc1 [Example 15, 4-((4-(4-((2,6-diethoxy-4′-fluoro-[1,1′-biphenyl]-4-yl)methyl)piperazin-1-yl)piperidin-1-yl)sulfonyl)benzoic acid] |
| 50 to 200 | – | – | CCOc1cc(CN2CCC3(CC2)CN(c2ccc(C(=O)O)cc2)C3)ccc1F [Example 24, 4-(7-(3-ethoxy-4-fluorobenzyl)-2,7-diazaspiro[3.5]nonan-2-yl)benzoic acid] |
| > 200 | – | – | CCOc1cc(CN2CC3(CC(=O)N(c4ccc(C(=O)O)cc4)C3)C2)ccc1C [Example 22, 4-(2-(3-ethoxy-4-methylbenzyl)-7-oxy-2,6-diazaspiro[3.4]octan-6-yl)benzoic acid] |
| > 200 | – | – | CCOc1cc(CN2CCC(N3CCN(S(=O)(=O)c4ccc(OC(F)(F)F)cc4)CC3)CC2)cc(OCC)c1-c1ccc(F)cc1 [Example 13] |
| > 200 | – | – | CCOc1cc(CN2CC3(CC(=O)N(c4ccc(C(=O)O)cc4)C3)C2)ccc1F [Example 21, 4-(2-(3-ethoxy-4-fluorobenzyl)-7-oxy-2,6-diazaspiro[3.4]octan-6-yl)benzoic acid] |
| 50 to 200 | – | – | CCOc1cc(CN2CCN(S(=O)(=O)c3ccc(C(=O)O)cc3)CC2)cc(OCC)c1-c1ccc(F)cc1 [Example 17, 4-((4-((2,6-diethoxy-4′-fluoro-[1,1′-biphenyl]-4-yl)methyl)piperazin-1-yl)sulfonyl)benzoic acid] |
